Measured values as given in patent US6426355B1, “Heterocyclic carboxamide-containing thiourea inhibitors of herpes viruses containing phenylenediamine group” (American Home Products, priority 1998, dated 2002).
Values after ≈ are worked out from the molar mass of the structure shown.

Assays:
[1] = test system: HCMV recombinant mutant virus (RV145); assay: HCMV microtiter plate assay (beta-glucuronidase reporter); type: cell-based, Human Cytomegalovirus; conditions: for IC50 (ug/ml) HCMV: HCMV in human foreskin fibroblasts; for IC50: Human betaherpesvirus 5, Fibroblast, read-out: IC50 (ug/ml) HCMV
Source text: Ninety-six well plate cultures of human foreskin fibroblasts are infected in the presence of inhibitor compound with a HCMV recombinant mutant virus whose genome contains the prokaryotic beta-glucuronidase gene (Jefferson, R. A., S. M. Burgess, and D. Hirsh. 1986. Beta-glucuronidase from Escherichia coli as a gene fusion marker. Proc. Natl. Acad. Sci. USA 83:8447-8451) whose expression is controlled by a viral promoter. An example of such a virus is RV145 (Jones, T. R., V. P. Muzithras, and Y. Gluzman. 1991. Replacement mutagenesis of the human cytomegalovirus genome: US10 and US11 gene products are nonessential. J. Virol. 65:5860-5872). Since it is under the control of a viral promoter, beta-glucuronidase expression is an indirect indicator of growth and replication of HCMV in this assay. At 96 hours post-infection, the infected cell lysates are prepared (using 50 mM sodium phosphate [pH7.0] containing 0.1% Triton X-100 and 0.1% sarkosyl) and assayed for beta-glucuronidase activity using a substrate for the enzyme which when cleaved yields either a product which can be measured colorimetrically in a spectrophotometer or fluorescently in a microfluorimeter. Examples of such substrates are p-nitrophenyl-beta-D-glucuronide and methylumbelliferylglucuronide, respectively. The presence of an antiviral compound is indicated by the reduced expression of the HCMV genome resident beta-glucuronidase gene, compared to the absence of inhibitor. […] Data from this assay generated using varying amounts of inhibitor compound is also used to estimate the IC50 of an inhibitor compound.

[2] = test system: HSV-1; assay: HSV Antiviral (ELISA) assay; type: cell-based; conditions: for IC50 (ug/ml) HSV: HSV-1 in Vero cells; for IC50: Human alphaherpesvirus 1, HSV-1 in Vero cells, read-out: IC50 (ug/ml) HSV
Description: Vero cells (ATCC #CCL-81) are plated on 96-well tissue culture plates at 3.5×10^4 cells per 100 μl tissue culture DMEM (Dulbecco's modified Eagle media) supplemented with 2% fetal bovine serum (FBS) in each well. After overnight incubation @ 37° C. (in 5% CO2) and 30 minutes prior to infection with HSV-1 (multiplicity of infection equal to 0.006), cells are either untreated, or treated with test compound (multiple concentrations) or reference standard drug control. After approximately 24 hours post-infection incubation @ 37° C. (in 5% CO2), cells are fixed for ELISA assay. The primary antibody is murine anti-HSV glycoprotein D monoclonal primary antibody and the secondary antibody is goat anti-mouse IgG linked to β-galactosidase. Thus the extent of viral replication is determined by assessing β-galactosidase activity by quantifying the generation of the 4-methyl umbelliferone fluorescent cleavage product after addition of the methyl umbelliferyl-β-D-galactoside (Sigma #M1633) substrate on a microfluorimeter (365 nm for excitation and 450 nm for emission). Antiviral activity (IC50) of the test compound is determined by comparing the flourescence obtained in absence of compound to that obtained in the presence of compound.

[3] = test system: VZV strain Ellen; assay: VZV Antiviral (ELISA) assay; type: cell-based; conditions: for IC50 (ug/ml) VZV: VZV strain Ellen in HFF cells; for inhibition at 10 µg/mL: Human alphaherpesvirus 3, read-out: % inhibition 10 ug/ml VZV, at 10 ug/ml, VZV strain Ellen in HFF cells
Description: For the generation of stock VZV to be used in the assay, VZV strain Ellen (ATCC #VR-1367) is used to infect human foreskin fibroblast (HFF) cells at low multiplicity (less than 0.1) and incubated overnight at 37° C. in 5% CO2. After the overnight incubation, the mixture of uninfected and VZV-infected HFF infected cells are then harvested and added to each well of 96-well plates (3.5×10^4 cells in 100 μl DMEM supplemented with 2% FBS) which contain test compound or the reference standard drug control (in 100 μl DMEM supplemented with 2% FBS per well). These cells are incubated for three days at 37° C. in 5% CO2, then fixed for ELISA assay. The primary antibody is murine anti-VZV glycoprotein II monoclonal antibody (Applied Biosystems, Inc. #13-145-100) and the secondary antibody is goat anti-mouse IgG linked to β-galactosidase. Thus the extent of viral replication is determined by assessing β-galactosidase activity by quantifying the generation of the 4-methyl umbelliferone fluorescent cleavage product after addition of the methyl umbelliferyl-β-D-galactoside (Sigma #M1633) substrate on a microfluorimeter (365 nm for excitation and 450 nm for emission). Antiviral activity (IC50) of the test compound is determined by comparing the flourescence obtained in absence of compound to that obtained in the presence of compound.

Row | Compound | IC50 (ug/ml) HCMV [1] | IC50 (ug/ml) VZV [3] | other results
1 | O=C(Nc1ccc(NC(=S)NCCc2ccc(F)c(C(F)(F)F)c2)cc1)c1csnn1 [Example 764] | 0.004 µg/mL (≈ 8.52 nM) | – | IC50 (ug/ml) HSV [2]: >10 µg/mL
2 | O=C(NCc1ccc(Cl)c(Cl)c1)Nc1ccc(NC(=O)c2csnn2)cc1 [Example 90, [1,2,3]Thiadiazole-4-carboxylic acid {4-[3-(3,4-dichloro-benzyl)-ureido]-phenyl}-amide] | – | – | IC50 [1]: 0.07 µg/mL (≈ 166 nM); IC50 [2]: > 10 µg/mL
3 | O=C(Nc1ccc(NC(=S)Nc2ccc(Cl)c(C(F)(F)F)c2)cc1)c1cscn1 [Example 705] | 0.006 µg/mL (≈ 13.1 nM) | – | IC50 (ug/ml) HSV [2]: >10 µg/mL
4 | O=C(Nc1ccc(NC(=S)NCCOc2ccc(Br)cc2)cc1)c1csnn1 [Example 693] | 0.03 µg/mL (≈ 62.7 nM) | – | IC50 (ug/ml) HSV [2]: >10 µg/mL
5 | O=C(Nc1ccc(NC(=S)Nc2ccccc2Cl)cc1)c1ccccc1F [Example 998, N-{4-[3-(2-Chloro-phenyl)-thioureido]-phenyl}-2-fluoro-benzamide] | – | – | IC50 [1]: 0.016 µg/mL (≈ 40 nM); IC50 [2]: > 10 µg/mL
6 | O=C(Nc1ccc(NC(=S)NCCOc2cccc(Cl)c2)cc1)c1ccco1 [Example 667] | 0.03 µg/mL (≈ 72.1 nM) | – | IC50 (ug/ml) HSV [2]: 8 µg/mL (≈ 19200 nM)
7 | O=C(Nc1ccc(NC(=S)Nc2cc(C(F)(F)F)cc(C(F)(F)F)c2)cc1)c1cscn1 [Example 701] | 0.008 µg/mL (≈ 16.3 nM) | – | IC50 (ug/ml) HSV [2]: >10 µg/mL
8 | O=C(Nc1ccc(NC(=S)NCCc2cc(F)cc(F)c2)cc1)c1csnn1 [Example 720] | 0.01 µg/mL (≈ 23.8 nM) | – | IC50 (ug/ml) HSV [2]: >10 µg/mL
9 | Cc1cc(C)cc(CNC(=S)Nc2ccc(NC(=O)c3csnn3)cc2)c1 [Example 691] | 0.008 µg/mL (≈ 20.1 nM) | – | IC50 (ug/ml) HSV [2]: >10 µg/mL
10 | O=C(Nc1ccc(NC(=S)NCCOc2ccc(Cl)c(Cl)c2)cc1)c1csnn1 [Example 703] | 0.007 µg/mL (≈ 14.9 nM) | – | IC50 (ug/ml) HSV [2]: >10 µg/mL
11 | CC(C)(NC(=S)Nc1ccc(NC(=O)c2csnn2)cc1)c1ccccc1 [Example 728] | – | – | IC50 (ug/ml) HSV [2]: 9 µg/mL (≈ 22600 nM)
12 | O=C(Nc1ccc(NC(=S)NC(c2ccccc2)c2cc(C(F)(F)F)cc(C(F)(F)F)c2)cc1)c1csnn1 (stereo not drawn) [Example 860] | 0.001 µg/mL (≈ 1.72 nM) | >7.5 µg/mL | –
13 | CC(NC(=S)Nc1ccc(NC(=O)c2csnn2)cc1)c1cc(C(F)(F)F)cc(C(F)(F)F)c1 (stereo not drawn) [Example 818] | 0.0016 µg/mL (≈ 3.08 nM) | >7.5 µg/mL | –
14 | Cn1cnc(C(=O)Nc2ccc(NC(=S)NCc3cc(C(F)(F)F)cc(C(F)(F)F)c3)cc2)c1 [Example 864] | 0.5 µg/mL (≈ 997 nM) | >7.5 µg/mL | –
15 | CCC(NC(=S)Nc1ccc(NC(=O)c2csnn2)cc1)c1cc(C(F)(F)F)cc(C(F)(F)F)c1 (stereo not drawn) [Example 857] | 0.0006 µg/mL (≈ 1.12 nM) | >7.5 µg/mL | –
16 | CN(C)c1cc(NC(=S)Nc2ccc(NC(=O)c3csnn3)cc2)cc(C(F)(F)F)c1 [Example 571] | 0.013 µg/mL (≈ 27.9 nM) | >10 µg/mL | –
17 | CC(=O)Nc1ccc(NC(=S)Nc2ccc(-c3ccno3)c(Cl)c2)cc1 [Example 974, N-{4-[3-(3-Chloro-4-isoxazol-5-yl-phenyl)-thioureido]-phenyl} -acetamide] | – | – | IC50 [1]: 0.011 µg/mL (≈ 28.4 nM); inhibition at 10 µg/mL [3]: 14%
18 | CC(NC(=S)Nc1ccc(NC(=O)c2cscn2)cc1)c1ccc(Cl)c(F)c1 (stereo not drawn) [Example 853] | 0.004 µg/mL (≈ 9.2 nM) | 0.62 µg/mL (≈ 1430 nM) | –
19 | CC(NC(=S)Nc1ccc(NC(=O)c2cscn2)cc1)c1ccc(F)cc1Cl (stereo not drawn) [Example 839] | 0.004 µg/mL (≈ 9.2 nM) | >7.5 µg/mL | –
20 | CC(NC(=S)Nc1ccc(NC(=O)c2cscn2)cc1)c1ccc(Cl)cc1Cl (stereo not drawn) [Example 836] | 0.004 µg/mL (≈ 8.86 nM) | >7.5 µg/mL | –

Row | Compound | IC50 (ug/ml) HCMV [1] | IC50 (ug/ml) VZV [3] | other results
21 | CC(NC(=S)Nc1ccc(NC(=O)c2cscn2)cc1)c1ccc(C(F)(F)F)c(F)c1 (stereo not drawn) [Example 849] | 0.002 µg/mL (≈ 4.27 nM) | 1.82 µg/mL (≈ 3880 nM) | –
22 | CC(NC(=S)Nc1ccc(NC(=O)c2cscn2)cc1)c1ccc(F)cc1F (stereo not drawn) [Example 846] | 0.0130 µg/mL (≈ 31.1 nM) | 1.04 µg/mL (≈ 2490 nM) | –
23 | CCCC(NC(=S)Nc1ccc(NC(=O)c2csnn2)cc1)c1cc(C(F)(F)F)cc(C(F)(F)F)c1 (stereo not drawn) [Example 858] | 0.0007 µg/mL (≈ 1.28 nM) | >7.5 µg/mL | –
24 | CC(NC(=S)Nc1ccc(NC(=O)c2cscn2)cc1)c1cccc(F)c1 (stereo not drawn) [Example 842] | 0.02 µg/mL (≈ 49.9 nM) | 1.55 µg/mL (≈ 3870 nM) | –
25 | CC(NC(=S)Nc1ccc(NC(=O)c2csnn2)cc1)c1ccc(F)c(C(F)(F)F)c1 (stereo not drawn) [Example 828] | 0.002 µg/mL (≈ 4.26 nM) | >7.5 µg/mL | –
26 | CC(NC(=S)Nc1ccc(NC(=O)c2cscn2)cc1)c1ccc(Cl)cc1F (stereo not drawn) [Example 851] | 0.017 µg/mL (≈ 39.1 nM) | 1.43 µg/mL (≈ 3290 nM) | –
27 | O=C(Nc1ccc(NC(=S)NCCc2ccccc2)cc1)c1csnn1 [Example 575] | 0.017 µg/mL (≈ 44.3 nM) | 2 µg/mL (≈ 5220 nM) | –
28 | C[C@H](NC(=S)Nc1ccc(NC(=O)c2csnn2)cc1)c1ccc(Br)cc1 [Example 815] | 0.0095 µg/mL (≈ 20.5 nM) | 0.27 µg/mL (≈ 584 nM) | –
29 | CCCCC(NC(=S)Nc1ccc(NC(=O)c2csnn2)cc1)c1cc(C(F)(F)F)cc(C(F)(F)F)c1 (stereo not drawn) [Example 859] | 0.00001 µg/mL (≈ 0.0178 nM) | 0.5 µg/mL (≈ 890 nM) | –
30 | CC(C)(NC(=S)Nc1ccc(NC(=O)c2csnn2)cc1)c1cc(C(F)(F)F)cc(C(F)(F)F)c1 [Example 861] | 0.002 µg/mL (≈ 3.75 nM) | >7.5 µg/mL | –
31 | CC(NC(=S)Nc1ccc(NC(=O)c2cscn2)cc1)c1cccc(Br)c1 (stereo not drawn) [Example 844] | 0.0008 µg/mL (≈ 1.73 nM) | 1.03 µg/mL (≈ 2230 nM) | –
32 | O=C(Nc1ccc(NC(=S)NCc2cc(F)cc(C(F)(F)F)c2)cc1)c1ccco1 [Example 585] | 0.015 µg/mL (≈ 34.3 nM) | >10 µg/mL | –
33 | CC(=O)Nc1ccc(NC(=S)Nc2cc(Cl)cc(Cl)c2)cc1 [Example 983, N-{4-[3-(3,5-Dichloro-phenyl)-thioureido]-phenyl}-acetamide] | – | – | IC50 [1]: 0.12 µg/mL (≈ 339 nM); inhibition at 10 µg/mL [3]: 52%
34 | CC(NC(=S)Nc1ccc(NC(=O)c2cscn2)cc1)c1ccc(F)c(F)c1 (stereo not drawn) [Example 840] | 0.0015 µg/mL (≈ 3.58 nM) | 0.14 µg/mL (≈ 335 nM) | –
35 | O=C(Nc1ccc(NC(=S)NC(CO)c2ccccc2)cc1)c1csnn1 (stereo not drawn) [Example 726] | – | – | IC50 (ug/ml) HSV [2]: >10 µg/mL
36 | O=C(Nc1ccc(NC(=S)NCc2ccc3c(c2)OCO3)cc1)c1ccco1 [Example 546] | – | 7 µg/mL (≈ 17700 nM) | IC50 (ug/ml) HSV [2]: 1.7 µg/mL (≈ 4300 nM)
37 | CC(NC(=S)Nc1ccc(NC(=O)c2cscn2)cc1)c1ccc(F)c(C(F)(F)F)c1 (stereo not drawn) [Example 838] | 0.0007 µg/mL (≈ 1.49 nM) | >7.5 µg/mL | –
38 | C[C@@H](NC(=S)Nc1ccc(NC(=O)c2csnn2)cc1)c1ccc(Br)cc1 [Example 816] | 0.0053 µg/mL (≈ 11.5 nM) | >7.5 µg/mL | –
39 | CC(NC(=S)Nc1ccc(NC(=O)c2cscn2)cc1)c1ccc(Cl)c(C(F)(F)F)c1 (stereo not drawn) [Example 850] | 0.0008 µg/mL (≈ 1.65 nM) | 2.33 µg/mL (≈ 4800 nM) | –
40 | O=C(Nc1ccc(NC(=S)NCc2cccc(Cl)c2)cc1)c1csnn1 [Example 572] | 0.0078 µg/mL (≈ 19.3 nM) | >10 µg/mL | –
